The text below walks through data of PMC9036655 (RSC Advances, 2021).

A value given as a limit tells only on which side of the number the result lay.

The first test deals with A549 cells. Briefly: Cytotoxicity, MTT assay, A549 cells. Type of test: cell-based, Human. The settings on record: Homo sapiens, A549, 72 h, read-out: IC50 A549.
For the compound `COc1cc(OC)cc(-c2ccc(C(=O)NCc3c4c(c(C)[nH]c3=O)CCCC4)cc2)c1` [6b6, 3′,5′-Dimethoxy-N-((1-methyl-3-oxo-2,3,5,6,7,8-hexahydroisoquinolin-4-yl)methyl)-[1,1′-biphenyl]-4-carboxamide], the IC50 was more than 100 µg/mL.
For the compound `Cc1[nH]c(=O)c(CNC(=O)c2ccc(F)nc2)c2c1CCCC2` [6b26, 6-Fluoro-N-((1-methyl-3-oxo-2,3,5,6,7,8-hexahydroisoquinolin-4-yl)methyl)nicotinamide], the IC50 is more than 100 µg/mL.

Still in this test, the particulars now being: IC50(A549)/MIC M. tb.
With `COc1cc(OC)cc(-c2ccc(C(=O)NCc3c4c(c(C)[nH]c3=O)CCCC4)cc2)c1` [6b6, 3′,5′-Dimethoxy-N-((1-methyl-3-oxo-2,3,5,6,7,8-hexahydroisoquinolin-4-yl)methyl)-[1,1′-biphenyl]-4-carboxamide], the “Selectivity index A549” value is given as more than 33.
`Cc1[nH]c(=O)c(CNC(=O)c2ccc(F)nc2)c2c1CCCC2` [6b26, 6-Fluoro-N-((1-methyl-3-oxo-2,3,5,6,7,8-hexahydroisoquinolin-4-yl)methyl)nicotinamide]: the “Selectivity index A549” value was more than 63.

The next test deals with Vero cells. Briefly: Cytotoxicity, MTT assay, Vero cells. The note with it: IC50(Vero)/MIC M. tb. Type of test: cell-based, African green monkey.
Regarding `COc1cc(OC)cc(-c2ccc(C(=O)NCc3c4c(c(C)[nH]c3=O)CCCC4)cc2)c1` [6b6, 3′,5′-Dimethoxy-N-((1-methyl-3-oxo-2,3,5,6,7,8-hexahydroisoquinolin-4-yl)methyl)-[1,1′-biphenyl]-4-carboxamide], the “Selectivity index Vero” value is more than 16.
`Cc1[nH]c(=O)c(CNC(=O)c2ccc(F)nc2)c2c1CCCC2` [6b26, 6-Fluoro-N-((1-methyl-3-oxo-2,3,5,6,7,8-hexahydroisoquinolin-4-yl)methyl)nicotinamide]: the “Selectivity index Vero” value is on record as more than 31.

A further test concerns M. tuberculosis H37Rv. Nature of the test: Antimycobacterial activity against M. tuberculosis H37Rv. Type of test: cell-based, Mycobacterium tuberculosis. The settings on record: M. tuberculosis H37Rv; 20 μg mL^−1.
Regarding `NNC(=O)c1ccncc1` [Isoniazid, reference compound], the “% inhibition 20 μg mL^−1” value worked out at 99.4%.
Regarding “N-((6-Ethyl-4-methyl-2-oxo-1,2-dihydropyridin-3-yl)methyl)-5-nitrofuran-2-carboxamide [8a2]”, the “% inhibition 20 μg mL^−1” value came out at 98.2%.

Staying with this test, now noted: M. tuberculosis H37Rv; MIC90, average of three measurements.
Turning to “4-Methyl-3-(((1-(4-(trifluoromethoxy)benzoyl)piperidin-4-yl)amino)methyl)-5,6,7,8-tetrahydroquinolin-2(1H)-one [6d10]”, the MIC is more than 50 µg/mL.

The same test, now with this note: Mycobacterium tuberculosis, H37RV, read-out: % inhibition 20 μg mL^−1, M. tuberculosis H37Rv; 20 μg mL^−1.
In the case of `Cc1[nH]c(=O)c(CNC(=O)c2ccc(Cl)nc2)c2c1CCCC2` [6b24, 6-Chloro-N-((1-methyl-3-oxo-2,3,5,6,7,8-hexahydroisoquinolin-4-yl)methyl)nicotinamide], the inhibition at 20 µg/mL came out at 98.3%.
Consider `Cc1[nH]c(=O)c(CNC(=O)c2ccc(Br)nc2)c2c1CCCC2` [6b25, 6-Bromo-N-((1-methyl-3-oxo-2,3,5,6,7,8-hexahydroisoquinolin-4-yl)methyl)nicotinamide], for which the inhibition at 20 µg/mL worked out at 98.9%.
On the same count and under the same terms, under `Cc1[nH]c(=O)c(CNC(=O)c2ccc(F)nc2)c2c1CCCC2` [6b26, 6-Fluoro-N-((1-methyl-3-oxo-2,3,5,6,7,8-hexahydroisoquinolin-4-yl)methyl)nicotinamide] stands 94.1%.
Turning to `Cc1ccc(C(=O)NCc2c3c(c(C)[nH]c2=O)CCCC3)cn1` [6b27, 6-Methyl-N-((1-methyl-3-oxo-2,3,5,6,7,8-hexahydroisoquinolin-4-yl)methyl)nicotinamide], the inhibition at 20 µg/mL stood at 98.6%.
For `Cc1[nH]c(=O)c(CNC(=O)c2ccc([N+](=O)[O-])nc2)c2c1CCCC2` [6b28, N-((1-Methyl-3-oxo-2,3,5,6,7,8-hexahydroisoquinolin-4-yl)methyl)-6-nitronicotinamide], the inhibition at 20 µg/mL was 98.9%.
The same measure, in the same setting: under `Cc1[nH]c(=O)c(CNC(=O)c2cc([N+](=O)[O-])co2)c2c1CCCC2` [6b30, N-((1-Methyl-3-oxo-2,3,5,6,7,8-hexahydroisoquinolin-4-yl)methyl)-4-nitrofuran-2-carboxamide] stands 78.2%; under `Cc1[nH]c(=O)c(CNC(=O)c2ccc(Br)o2)c2c1CCCC2` [6b31, 5-Bromo-N-((1-methyl-3-oxo-2,3,5,6,7,8-hexahydroisoquinolin-4-yl)methyl)furan-2-carboxamide], 97.7%; under `Cc1[nH]c(=O)c(CNC(=O)c2ccc([N+](=O)[O-])s2)c2c1CCCC2` [6b32, N-((1-Methyl-3-oxo-2,3,5,6,7,8-hexahydroisoquinolin-4-yl)methyl)-5-nitrothiophene-2-carboxamide], 96.4%.
Take `Cc1[nH]c(=O)c(CNC(=O)c2cn[nH]c2)c2c1CCCC2` [6b35, N-((1-Methyl-3-oxo-2,3,5,6,7,8-hexahydroisoquinolin-4-yl)methyl)-1H-pyrazole-4-carboxamide]: the inhibition at 20 µg/mL worked out at 94.6%.
Same read-out and setting: with `Cc1[nH]c(=O)c(CNC(=O)c2ccno2)c2c1CCCC2` [6b36, N-((1-Methyl-3-oxo-2,3,5,6,7,8-hexahydroisoquinolin-4-yl)methyl)isoxazole-5-carboxamide] the figure was 25.1%; with `COc1cc(OC)cc(-c2ccc(C(=O)NCc3c(C)cc(C4CC4)[nH]c3=O)cc2)c1` [7a2, N-((6-Cyclopropyl-4-methyl-2-oxo-1,2-dihydropyridin-3-yl)methyl)-3′,5′-dimethoxy-[1,1′-biphenyl]-4-carboxamide], 21%; with `COc1cc(OC)cc(-c2ccc(C(=O)NCc3c(C)cc(-c4ccccc4)[nH]c3=O)cc2)c1` [7b2, 3′,5′-Dimethoxy-N-((4-methyl-2-oxo-6-phenyl-1,2-dihydropyridin-3-yl)methyl)-[1,1′-biphenyl]-4-carboxamide], 33%.
The same measure, in the same setting: under `Cc1cc(C)c(CNC(=O)c2ccc([N+](=O)[O-])o2)c(=O)[nH]1` [8a1, N-((4,6-Dimethyl-2-oxo-1,2-dihydropyridin-3-yl)methyl)-5-nitrofuran-2-carboxamide] stands 75.3%; under `CCc1cc(CC)c(CNC(=O)c2ccc([N+](=O)[O-])o2)c(=O)[nH]1` [8a3, N-((4,6-Diethyl-2-oxo-1,2-dihydropyridin-3-yl)methyl)-5-nitrofuran-2-carboxamide], 98.1%.
On the same count and under the same terms, under `Cc1cc(C)c(CNC(=O)c2ccc(C(F)(F)F)cc2)c(=O)[nH]1` [8a4, N-((4,6-Dimethyl-2-oxo-1,2-dihydropyridin-3-yl)methyl)-4-(trifluoromethyl)benzamide] stands 87.6%; under `CCc1cc(CC)c(CNC(=O)c2ccc(C(F)(F)F)nc2)c(=O)[nH]1` [8a5, N-((4,6-Diethyl-2-oxo-1,2-dihydropyridin-3-yl)methyl)-6-(trifluoromethyl)nicotinamide], 94.4%.
`Cc1[nH]c(=O)c(CNCc2ccc(C(F)(F)F)cc2)c2c1CCCC2` [10a1, 1-Methyl-4-(((4-(trifluoromethyl)benzyl)amino)methyl)-5,6,7,8-tetrahydroisoquinolin-3(2H)-one]: the inhibition at 20 µg/mL was found to be 65.7%.
In the case of `Cc1[nH]c(=O)c(CNS(=O)(=O)c2ccc(C(F)(F)F)nc2)c2c1CCCC2` [10a2, N-((1-Methyl-3-oxo-2,3,5,6,7,8-hexahydroisoquinolin-4-yl)methyl)-6-(trifluoromethyl)pyridine-3-sulfonamide], the inhibition at 20 µg/mL is 92.7%.
On the same count and under the same terms, under `Cc1[nH]c(=O)c(C(=O)Nc2ccc(C(F)(F)F)cc2)c2c1CCCC2` [10a4, 1-Methyl-3-oxo-N-(4-(trifluoromethyl)phenyl)-2,3,5,6,7,8-hexahydroisoquinoline-4-carboxamide] stands 36.8%.
The same measure, in the same setting: under `Cc1[nH]c(=O)c(CNC(=O)Cc2ccc(C(F)(F)F)cc2)c2c1CCCC2` [10a5, N-((1-Methyl-3-oxo-2,3,5,6,7,8-hexahydroisoquinolin-4-yl)methyl)-2-(4-(trifluoromethyl)phenyl)acetamide] stands 99.3%; under `NNC(=O)c1ccncc1` [Isoniazid, reference compound], 98.9%.

The same test, now with this note: Mycobacterium tuberculosis, H37RV, read-out: % inhibition 50 μg mL^−1, M. tuberculosis H37Rv; 50 μg mL^−1.
With `Cc1[nH]c(=O)c(CNC(=O)c2ccc([N+](=O)[O-])s2)c2c1CCC2` [6a1, N-((1-Methyl-3-oxo-3,5,6,7-tetrahydro-2H-cyclopenta[c]pyridin-4-yl)methyl)-5-nitrothiophene-2-carboxamide], the inhibition at 50 µg/mL worked out at 53%.
On to `Cc1[nH]c(=O)c(CNC(=O)c2ccc(F)nc2)c2c1CCC2` [6a2, 6-Fluoro-N-((1-methyl-3-oxo-3,5,6,7-tetrahydro-2H-cyclopenta[c]pyridin-4-yl)methyl)nicotinamide], for which the inhibition at 50 µg/mL was found to be 14%.
For `Cc1[nH]c(=O)c(CNC(=O)c2ccc(Br)nc2)c2c1CCCCC2` [6c1, 6-Bromo-N-((1-methyl-3-oxo-3,5,6,7,8,9-hexahydro-2H-cyclohepta[c]pyridin-4-yl)methyl)nicotinamide], the inhibition at 50 µg/mL worked out at 33%.
Same read-out and setting: under `Cc1c2c([nH]c(=O)c1CNC(=O)c1ccc([N+](=O)[O-])s1)CCCC2` [6d5, N-((4-Methyl-2-oxo-1,2,5,6,7,8-hexahydroquinolin-3-yl)methyl)-5-nitrothiophene-2-carboxamide] stands 100%; under `COc1cc(OC)cc(C(=O)NCc2c(C)c3c([nH]c2=O)CCCC3)c1` [6d6, 3,5-Dimethoxy-N-((4-methyl-2-oxo-1,2,5,6,7,8-hexahydroquinolin-3-yl)methyl)benzamide], 100%; under `Cc1c2c([nH]c(=O)c1CNC(=O)c1ccc(C(F)(F)F)nc1Cl)CCCC2` [6d7, 2-Chloro-N-((4-methyl-2-oxo-1,2,5,6,7,8-hexahydroquinolin-3-yl)methyl)-6-(trifluoromethyl)nicotinamide], 99%.
Same read-out and setting: under `Cc1c2c([nH]c(=O)c1CNC(=O)c1ccc(-c3ccc(C(F)(F)F)nc3)cc1)CCCC2` [6d9, N-((4-Methyl-2-oxo-1,2,5,6,7,8-hexahydroquinolin-3-yl)methyl)-4-(6-(trifluoromethyl)pyridin-3-yl)benzamide] stands 18%; under `Cc1c(CNC(=O)c2ccc(C(F)(F)F)nc2)c(=O)[nH]c2ccccc12` [9a1, N-((4-Methyl-2-oxo-1,2-dihydroquinolin-3-yl)methyl)-6-(trifluoromethyl)nicotinamide], 2%; under `COc1cc(OC)cc(-c2ccc(C(=O)NCc3c(C)c4ccccc4[nH]c3=O)cc2)c1` [9a2, 3′,5′-Dimethoxy-N-((4-methyl-2-oxo-1,2-dihydroquinolin-3-yl)methyl)-[1,1′-biphenyl]-4-carboxamide], 15%.
As for `Cc1c(CNC(=O)c2ccc(-c3ccc(C(F)(F)F)nc3)cc2)c(=O)[nH]c2ccccc12` [9a3, N-((4-Methyl-2-oxo-1,2-dihydroquinolin-3-yl)methyl)-4-(6-(trifluoromethyl)pyridin-3-yl)benzamide], the inhibition at 50 µg/mL is 13%.
With `Cc1c(CNC(=O)c2cnc(C(F)(F)F)nc2)c(=O)[nH]c2ccccc12` [9a4, N-((4-Methyl-2-oxo-1,2-dihydroquinolin-3-yl)methyl)-2-(trifluoromethyl)pyrimidine-5-carboxamide], the inhibition at 50 µg/mL was determined as 3%.
In the case of `NNC(=O)c1ccncc1` [Isoniazid, reference compound], the inhibition at 50 µg/mL worked out at 98.9%.
